From patent publication US11090304B2 (Amgen Inc., priority 2018, dated 2021)
Read-outs that look alike come from different tables or passages of the source.

Key:
[1] = target: GDP-bound KRAS protein (aa 1-169), containing both G12C and C118A amino acid substitutions (Homo sapiens, UniProt P01116, C118A/G12C); assay: Coupled nucleotide exchange assay (SOS-mediated, AlphaScreen); format: biochemical; conditions: 5 min compound pre-incubation
[2] = system: Phosphorylation of ERK1/2 in MIA PaCa-2 cells; assay: Phospho-ERK1/2 MSD assay in MIA PaCa-2 cells; format: cell-based; conditions: read-out: p-ERK IC50 (2 h; MIA PaCa-2), 2 h compound treatment
How it was run: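 MSD electrochemiluminescence readout of phospho-ERK1/2 in whole-cell lysates, IC50 by 4-parameter logistic fit. Compound titrations were applied for 2 or 4 h at 37 °C, 5% CO2, followed by 10 ng/mL EGF stimulation for 10 min before lysis.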

Chain of GDP-bound KRAS protein (aa 1-169), containing both G12C and C118A amino acid substitutions (P01116 1-169 isoform P01116-2 G12C/C118A): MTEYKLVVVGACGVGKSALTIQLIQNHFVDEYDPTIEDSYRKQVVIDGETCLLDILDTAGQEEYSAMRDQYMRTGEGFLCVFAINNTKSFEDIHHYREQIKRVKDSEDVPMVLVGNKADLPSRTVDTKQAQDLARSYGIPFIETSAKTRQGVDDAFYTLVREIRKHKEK

Compound	Coupled exchange IC50 (5 min) [1]	IC50 [2] [nM]	IC50 ([2]; Homo sapiens, MIA PaCa-2, 2 h) [nM]
C=CC(=O)N1CCN(c2nc(=O)n(-c3ccccc3C(C)C)c3nc(-c4cc(O)cc(Cl)c4Cl)c(Cl)cc23)[C@@H](C)C1 (single isomer, unassigned) [Example 54-91-1]	0.021 | nda μM	33	–
C=CC(=O)N1CCN(c2nc(=O)n(-c3ccccc3C(C)C)c3nc(-c4cc(O)cc(Cl)c4Cl)c(Cl)cc23)[C@@H](C)C1 (single isomer, unassigned) [Example 54-91-2]	0.181 | nda μM	509	–
C=CC(=O)N1CCN(c2nc(=O)n(-c3ccccc3C3(C)CC3)c3nc(-c4c(O)cccc4F)c(Cl)cc23)[C@@H](C)C1 (single isomer, unassigned) [Example 54-97-1]	0.971 | nda μM	1020	–
C=CC(=O)N1CCN(c2nc(=O)n(-c3ccccc3C3(C)CC3)c3nc(-c4c(O)cccc4F)c(Cl)cc23)[C@@H](C)C1 (single isomer, unassigned) [Example 54-97-2]	0.044 | nda μM	141	–
C=CC(=O)N1CCN(c2nc(=O)n(-c3ccccc3C3(C)CC3)c3nc(-c4ccccc4F)c(Cl)cc23)[C@@H](C)C1 (single isomer, unassigned) [Example 54-99-2]	0.094 | nda μM	–	174
C=CC(=O)N1CCN(c2nc(=O)n(-c3cccnc3C(C)(C)C)c3nc(-c4c(O)cccc4F)c(Cl)cc23)[C@@H](C)C1 (single isomer, unassigned) [Example 54-103-1]	0.073 | nda μM	–	93
C=CC(=O)N1CCN(c2nc(=O)n(-c3c(C(C)C)cccc3N(C)C)c3nc(-c4ccccc4F)c(Cl)cc23)[C@@H](C)C1 (single isomer, unassigned) [Example 54-104-2]	0.035 | nda μM	–	210
C=CC(=O)N1CCN(c2nc(=O)n(-c3c(OC)ncnc3C(C)C)c3nc(-c4ccccc4F)c(Cl)cc23)[C@@H](C)C1 (single isomer, unassigned) [Example 54-107-2]	0.067 | nda μM	–	48
C=CC(=O)N1CCN(c2nc(=O)n(-c3cncnc3C(C)(C)C)c3nc(-c4ccccc4F)c(Cl)cc23)[C@@H](C)C1 (single isomer, unassigned) [Example 54-110-2]	0.194 | nda μM	–	119
C=CC(=O)N1CCN(c2nc(=O)n(-c3cccnc3C(C)(C)C)c3nc(-c4ccccc4F)c(Cl)cc23)[C@@H](C)C1 (single isomer, unassigned) [Example 54-112-1]	0.075 | nda μM	–	125
C=CC(=O)N1CCN(c2nc(=O)n(-c3c(C)nc(C)nc3C(C)C)c3nc(-c4c(O)cccc4F)c(Cl)cc23)[C@@H](C)C1 (single isomer, unassigned) [Example 55-4-1]	0.023 | nda μM	–	37
C=CC(=O)N1CCN(c2nc(=O)n(-c3c(C)ccnc3N(C)C)c3nc(-c4ccccc4F)c(Cl)cc23)[C@@H](C)C1 (single isomer, unassigned) [Example 55-7-2]	0.325 | nda μM	–	587
C=CC(=O)N1CCN(c2nc(=O)n(-c3c(C)cccc3CC)c3nc(-c4ccccc4F)c(Cl)cc23)[C@@H](C)C1 (single isomer, unassigned) [Example 55-9-1]	0.804 | nda μM	1350	–
C=CC(=O)N1CCN(c2nc(=O)n(-c3c(C)cccc3CC)c3nc(-c4ccccc4F)c(Cl)cc23)[C@@H](C)C1 (single isomer, unassigned) [Example 55-9-2]	0.158 | nda μM	298	–
C=CC(=O)N1CCN(c2nc(=O)n(-c3c(C)ccnc3CC)c3nc(-c4c(O)cccc4F)c(Cl)cc23)[C@@H](C)C1 (single isomer, unassigned) [Example 55-10-1]	0.065 | nda μM	82	–
C=CC(=O)N1CCN(c2nc(=O)n(-c3c(C)ccnc3CC)c3nc(-c4c(O)cccc4F)c(Cl)cc23)[C@@H](C)C1 (single isomer, unassigned) [Example 55-10-2]	0.266 | nda μM	344	–
C=CC(=O)N1CCN(c2nc(=O)n(-c3c(C)cccc3C3CC3)c3nc(-c4c(O)cccc4F)c(Cl)cc23)[C@@H](C)C1 (single isomer, unassigned) [Example 55-15-1]	0.169 | nda μM	206	–

The remaining lines, values ahead:

Coupled exchange IC50 (5 min) [1]	IC50 [2] [nM]	IC50 ([2]; Homo sapiens, MIA PaCa-2, 2 h) [nM]	Compound
0.061 | nda μM	76	–	C=CC(=O)N1CCN(c2nc(=O)n(-c3c(C)cccc3C3CC3)c3nc(-c4c(O)cccc4F)c(Cl)cc23)[C@@H](C)C1 (single isomer, unassigned) [Example 55-15-2]
0.031 | nda μM	–	124	C=CC(=O)N1CCN(c2nc(=O)n(-c3c(O)cccc3C(C)C)c3nc(-c4ccccc4F)c(Cl)cc23)[C@@H](C)C1 (single isomer, unassigned) [Example 55-26-2]
0.133 | nda μM	–	108	C=CC(=O)N1CCN(c2nc(=O)n(-c3c(C)cnn3C(C)(C)C)c3nc(-c4ccccc4F)c(Cl)cc23)[C@@H](C)C1 (single isomer, unassigned) [Example 55-38-2]
0.121 | nda μM	–	111	C=CC(=O)N1CCN(c2nc(=O)n(-c3c(C)ncnc3C(C)C)c3nc(-c4cc(F)ccc4F)c(Cl)cc23)[C@@H](C)C1 (single isomer, unassigned) [Example 55-39-2]
0.078 | nda μM	–	81	C=CC(=O)N1CCN(c2nc(=O)n(-c3c(C)ncnc3C(C)C)c3nc(-c4cc(C)ccc4F)c(Cl)cc23)[C@@H](C)C1 (single isomer, unassigned) [Example 55-40-2]
0.022 | nda μM	–	32	C=CC(=O)N1CCN(c2nc(=O)n(-c3c(CO)cccc3C(C)C)c3nc(-c4ccccc4F)c(Cl)cc23)[C@@H](C)C1 (single isomer, unassigned) [Example 55-43-2]
0.068 | nda μM	–	145	C=CC(=O)N1CCN(c2nc(=O)n(-c3ccccc3S(F)(F)(F)(F)F)c3nc(-c4c(O)cccc4F)c(Cl)cc23)[C@@H](C)C1 (single isomer, unassigned) [Example 56-1-2]
0.154 | nda μM	188	–	C=CC(=O)N1CCN(c2nc(=O)n(-c3c(C)cccc3C3CC3)c3nc(-c4ccccc4F)c(Cl)cc23)[C@@H](C)C1 (single isomer, unassigned) [Example 56-5-1]
0.668 | nda μM	823	–	C=CC(=O)N1CCN(c2nc(=O)n(-c3c(C)cccc3C3CC3)c3nc(-c4ccccc4F)c(Cl)cc23)[C@@H](C)C1 (single isomer, unassigned) [Example 56-5-2]
0.079 | nda μM	29	–	C=CC(=O)N1CCN(c2nc(=O)n(-c3ccccc3C(C)C)c3nc(-c4cc(N)ccc4Cl)c(Cl)cc23)[C@@H](C)C1 (single isomer, unassigned) [Example 56-7-1]
0.676 | nda μM	134	–	C=CC(=O)N1CCN(c2nc(=O)n(-c3ccccc3C(C)C)c3nc(-c4cc(N)ccc4Cl)c(Cl)cc23)[C@@H](C)C1 (single isomer, unassigned) [Example 56-7-2]
0.524 | nda μM	–	630	C=CC(=O)N1CCN(c2nc(=O)n(-c3c(C)ccnc3CC)c3nc(-c4c(O)cccc4F)c(F)cc23)[C@@H](C)C1 (single isomer, unassigned) [Example 57-1-1]
3.163 | nda μM	2090	–	C=CC(=O)N1CCN(c2nc(=O)n(-c3ccccc3C(C)C)c3nc(-c4c(O)cccc4F)c(F)cc23)[C@@H](C)C1 (single isomer, unassigned) [Example 57-6-1]
0.514 | nda μM	–	166	C=CC(=O)N1CCN(c2nc(=O)n(-c3ccccc3C(C)C)c3nc(-c4ccccc4Cl)c(F)cc23)[C@@H](C)C1 (single isomer, unassigned) [Example 57-8-2]
0.288 | nda μM	–	348	C=CC(=O)N1CCN(c2nc(=O)n(-c3c(C)cccc3CC)c3nc(-c4c(O)cccc4F)c(F)cc23)[C@@H](C)C1 (single isomer, unassigned) [Example 57-14-1]
0.089 | nda μM	104	–	C=CC(=O)N1CCN(c2nc(=O)n(-c3c(Cl)cccc3C(C)C)c3nc(-c4c(O)cccc4F)c(F)cc23)[C@@H](C)C1 (single isomer, unassigned) [Example 57-15-1]
0.841 | nda μM	984	–	C=CC(=O)N1CCN(c2nc(=O)n(-c3c(Cl)cccc3C(C)C)c3nc(-c4c(O)cccc4F)c(F)cc23)[C@@H](C)C1 (single isomer, unassigned) [Example 57-15-2]
0.316 | nda μM	–	300	C=CC(=O)N1CCN(c2nc(=O)n(-c3c(C)cccc3C(C)(C)C)c3nc(-c4c(O)cccc4F)c(F)cc23)[C@@H](C)C1 (single isomer, unassigned) [Example 57-17-1]
0.572 | nda μM	–	570	C=CC(=O)N1CCN(c2nc(=O)n(-c3ccccc3C(C)(C)C)c3nc(-c4c(O)cccc4F)c(F)cc23)[C@@H](C)C1 (single isomer, unassigned) [Example 58-1-2]
0.097 | nda μM	144	–	C=CC(=O)N1CCN(c2nc(=O)n(-c3c(C(F)(F)F)ccnc3C(C)C)c3nc(-c4c(O)cccc4F)c(F)cc23)[C@@H](C)C1 (single isomer, unassigned) [Example 58-3-1]
